These results are taken from patent US5234934A, “Aminopropanol derivatives, process for their preparation and pharmaceutical compositions comprising the same” (priority 1989, dated 1993).

Like-named read-outs stand apart in the source and are kept apart here.

Usually ED50 stands for the midpoint of the dose-response relation. The term LD50 denotes the dose at which mortality reaches 50%. Read a high LD50 as lower toxicity.

Data set [1] has as its system coronary insufficiency caused by vasopressine. The data set can be described thus: antianginal effect on rats (vasopressine coronary insufficiency, Nieschulz). The format is in vivo, rat. The settings on record: Rattus norvegicus, read-out: ED50 (antianginal). The protocol: The test was carried out by using rats weighing 180 to 220 g. The animals were narcotised by chloralose urethane (70 to 700 mg/kg ip.). The ECG alterations were registered in standard II lead with the aid of needle electrodes. The antianginal effect was measured with Nieschultz's method. The coronary insufficiency was caused by vasopressine (1 NE/kg, iv.). The size of the T-wave was measured before and after administration of vasopressine in both the control and test groups. The compounds of the invention were administered 2 minutes before the administration of vasopressine. (Nieschulz, O., Popendiker, K., Hoffmann, I.: Arzneimittel-Forschung 5, 680/1955/)

Data set [2] can be described thus: acute toxicity test in mice (Litchfield and Wilcoxon). Particulars: mouse, in vivo, po., 14 days observation. The format is in vivo, mouse. The gist of the method:
(§1)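 CFLP white mice of both sexes (18-22 g, 10 per dose group) were dosed orally at a volume of 20 ml/kg. Animals had free access to water and feed. Toxicity data were calculated by the Litchfield and Wilcoxon method.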

The subject of data set [3] is aconitine-induced ECG alterations. The data set can be described thus: animal or person. The format is in vivo, rat. Particulars: Rattus norvegicus, iv, read-out: Effect % (antiarrhythmic). As for the experimental part: The test was carried out by using the modified method of Marmo et al. on rats weighing 160 to 200 g. The animals were narcotised by ethyl uretane (1.2 g/kg ip.). Aconitin was administered intravenously in a dose of 75 /ug/kg in the form of a bolus injection. The ECG alterations were monitored in standard II lead by 5 minutes after the administration of aconitine. The observed alterations were classified into classes 0 to 5. The compounds of the invention were administered 2 minutes or 60 minutes before the parenteral or oral administration of aconitine, respectively. […]
class 1: sometimes an extrasystole occurs class 2: each second one is an extrasystole class 3: extrasystoles in groups class 4: each one is an extrasystole class 5: fibrillation, death
(Marmo, E., DiGiacomo, S., Imperatore, A.: Arzeimittel-Forschung 20, 12/1970/)

The next data set concerns nervus ischiadicus. The data set can be described thus: local analgesic effect (Truant d'Amato's method). Particulars: for EC50 %: 0.2 ml injected around nervus ischiadicus; for Duration of effect: in a conc. of 0.5%. Type of data set: in vivo. As for the experimental part: The tests were carried out according to Truant d'Amato's method. 0.2 ml of test material was injected around the nervus ischiadicus in the middle of femur with a needle of 1 cm length. The criterion of analgesic effect was the lack of the motoric control of foot muscles.
The duration of effect was registered and the 50 percentile effective concentration (EC50) was calculated on the basis of the dose-effect curve. Lidocain was used as comparative material. (Truant, A. P., D'Amato, D.: Acta Chir Scand. 116, 351/1958/)

The next data set has as its system gastric acid secretion. The data set can be described thus: gastric acid secretion test (Shay). Type of data set: in vivo, rat. Particulars: Rattus norvegicus, rats, read-out: Inhibition of free acid, %; for inhibition in vivo at 160 mg/kg: dose 160 mg/kg po.; for inhibition in vivo at 200 mg/kg: dose 200 mg/kg po. The protocol: The test was carried out according to Shay's operational method. […] On the day of the test the pylorus of the animals was bound under ether narcosis. The test compounds were administered orally 3 hours before the operation. The animals of the control group were administered with the carrier only. 4 hours after the operation the stomach was removed, the content thereof was centrifuged and the amount of free acid was determined by titration with 0.1N sodium hydroxide.

A further data set concerns hexobarbital narcosis. The data set can be described thus: narcosis potentiating effect (hexobarbital sleeping time). The settings on record: for ED50: Mus musculus, po, read-out: ED50 (narcosis potentiation); for TI (therapeutic index): narcosis potentiation, mice, po.
A further data set deals with white mice (CFLP strain). Put plainly: acute toxicity test in mice (Litchfield and Wilcoxon). The format is in vivo, mouse. Particulars: po., 14 days observation. In short, it runs like this: as §1
Data set [4] has as its system peristalty of stomach and intestines. Put plainly: effect exerted on the peristalty of stomach and intestines (Stickney et al., carbon suspension). Particulars: po., mice; for ED50: Mus musculus, read-out: ED50 (antiperistaltic); for TI (therapeutic index): antiperistaltic. The format is in vivo, mouse. As for the experimental part: The antiperistaltic effect of the compounds was examined by the method of Stickney et al. on white mice of both sexes, weighing 20 to 25 g. The compounds to be tested were administered per os 60 minutes before the addition of carbon suspension to groups containing 10 mice each. The animals of the control groups were treated at the same time and in the same manner with the carrier only. The mice were killed 10 minutes after the addition of the carbon suspension, and the whole length of the intestines as well as the length of the intestines filled with carbon suspension were measured.

The mark [5] stands for this setting: iv., rats, vasopressine 1 NE/kg iv.

Method for hexobarbital narcosis: The narcosis potentiating effect of the compounds of the invention were examined on white mice, with 6 animals in each group. The mice were administered orally with the compounds of the invention, then both the control and the test groups were intravenously added 40 mg/kg of hexobarbital in order to make the mice sleep (Kaergard et al.).

Take `CC(Cc1ccccc1)NCCC(c1ccccc1)c1ccccc1` (stereo not drawn) [Prenilamine, reference compound]: in data set [1] (iv), the 50% effective dose (ED50) was 6.5 mg/kg.
`CC(C)N(CC(O)CO/N=C1\CCC\C1=C/c1ccccc1)C(C)C` (racemic) [Example 21, R,S-2-(E)-Phenylmethylene-{3-[bis-(1-methylethyl)-amino]-2-hydroxy-propoxyimino}-cyclopentane] displayed an LD50 at 336 h in data set [2] of 700 mg/kg. Also, the change in vivo at 4 mg/kg in data set [3] was -46%. Further, in the data set with nervus ischiadicus, the EC50 % is given as 0.24% and the Duration of effect amounted to 89 min.
As to `CCCCNCC(O)CO/N=C1\CCCC\C1=C/c1ccc(Cl)cc1` (racemic) [Example 29, R,S-2-(E)-(4-Chlorophenyl-methylene)-1-(E)-(3-butylamino-2-hydroxy-propoxyimino)-cyclohexane], the LD50 at 336 h in data set [2] was found to be 1300 mg/kg. Besides, the inhibition in vivo at 260 mg/kg with gastric acid secretion (dose 260 mg/kg po.) stood at 87%. In the data set on hexobarbital narcosis, the ED50 amounted to 30 mg/kg and the “TI (therapeutic index)” value came out at 43.
Take `CCN(CC)CC(O)CO/N=C1\CCCCC\C1=C/c1ccc(OC)cc1` (racemic) [Example 44, R,S-2-(E)-(4-Methoxyphenyl-methylene)-1-(E)-(3-diethylamino-2-hydroxy-propoxyimino)-cycloheptane]: the LD50 at 336 h in data set [2] was 600 mg/kg. Further, the ED50 in data set [1] (setting [5]) worked out at 1.93 mg/kg.
As for `CC(C)NCC(O)CO/N=C1\CCCCCC\C1=C/c1ccccc1` (racemic) [Example 48, R,S-2-(E)-Phenylmethylene-1-(E)-[3-(1-methylethyl-amino)-2-hydroxypropxyimino]-cyclooctane], the LD50 at 336 h in data set [2] is over 1000 mg/kg. In data set [3], the change in vivo at 4 mg/kg was -43.5%. For the same compound, in the data set with nervus ischiadicus, the EC50 % stood at 0.31% and the Duration of effect worked out at 122 min. Further, the inhibition in vivo at 100 mg/kg in the data set with gastric acid secretion (dose 100 mg/kg po.) was 75%.
With `CCCNCC(O)CO/N=C1\CCCCC\C1=C/c1ccc(OC)cc1` (racemic) [Example 43, R,S-2-(E)-(4'-Methoxyphenyl-methylene)-1-(E)-(3-propylamino-2-hydroxy-propoxyimino)-cycloheptane], in data set [2], the median lethal dose (LD50) at 336 h is 800 mg/kg. Also, the ED50 in data set [1] (setting [5]) was about 2 mg/kg. For the same compound, in the data set with gastric acid secretion, the inhibition in vivo at 160 mg/kg came out at 32%. In the data set on hexobarbital narcosis, the ED50 stood at 50 mg/kg and the “TI (therapeutic index)” value worked out at 16.
Regarding `OC(CO/N=C1\CCCC\C1=C/c1ccccc1)CN1CCCCCC1` (racemic) [Example 10, R,S-2-(E)-Phenylmethylene-1-(E)-(3-hexamethylene-imino-2-hydroxypropoxyimino)-cyclohexane], the LD50 at 336 h in data set [2] turned out to be 900 mg/kg. For the same compound, in data set [3], the change in vivo at 4 mg/kg was -47%. For the same compound, in data set [1] (setting [5]), the ED50 came to 1.62 mg/kg.
In the data set with white mice (CFLP strain), `CC(C)CNCC(O)CON=C1CCCCC1=Cc1cccc(Cl)c1` (stereo not drawn) [Example 25, R,S-2-(E)-3-Chlorophenylmethylene-1-(E)-[3-(2-methylpropyl-amino)-2-hydroxy-propoxyimino]-cyclohexane] had an LD50 of 900 mg/kg.
`CCCN(CCC)CC(O)CO/N=C1\CCCCC\C1=C/c1ccc(OC)cc1` (racemic) [Example 51, R,S-2-(E)-(4-Methoxyphenyl-methylene)-1-(E)-(3-dipropylamino-2-hydroxy-propoxyimino)-cycloheptane] had an LD50 at 336 h in data set [2] of 100 to 500 mg/kg. Besides, the ED50 in data set [1] (setting [5]) was 0.43 mg/kg. In the data set with nervus ischiadicus, this compound had an EC50 % of 0.28% and a Duration of effect of 103 min.
`CN1CCN(CC(O)CO/N=C2\CCCC\C2=C/c2c(Cl)cccc2Cl)CC1` (racemic) [Example 36, R,S-2-(E)-(2,6-Dichlorophenyl-methylene)-1-(E)-[3-(4-methyl-1-piperazinyl)-2-hydroxy-propoxyimino]-cyclohexane] showed an LD50 at 336 h in data set [2] of 700 mg/kg. Besides, the median effective dose (ED50) is 1.28 mg/kg in data set [1] (setting [5]), about 100 mg/kg in data set [4] and 14 mg/kg with hexobarbital narcosis. Besides, the “TI (therapeutic index)” value in data set [4] is reported as “about 7”; with hexobarbital narcosis it was 50.
As for `OC(CO/N=C1\CCCCCC\C1=C/c1ccccc1)CN1CCOCC1` (racemic) [Example 18, R,S-2-(E)-Phenylmethylene-1-(E)-(3-morpholino-2-hydroxy-propoxyimino)-cyclooctane], the LD50 at 336 h in data set [2] was over 1000 mg/kg. Also, in data set [3], the change in vivo at 4 mg/kg was -50%. Further, the inhibition in vivo at 200 mg/kg with gastric acid secretion stood at 68%. For the same compound, in the data set with hexobarbital narcosis, the ED50 was 25 mg/kg and the “TI (therapeutic index)” value is on record as over 40.
In the case of `CCCNCC(O)CO/N=C1\CCCC\C1=C/c1ccc(Cl)cc1` (stereo not drawn) [Example 46, R,S-2-(E)-(4-Chlorophenyl-methylene)-1-(E)-(3-propylamino-2-hydroxypropoxyimino)-cyclohexane], the LD50 entry with white mice (CFLP strain) is recorded as “more than 1000 mg/kg”. In the data set with nervus ischiadicus, this compound displayed an EC50 % of 0.19% and a Duration of effect of 81 min.
As for `CCN(CC)CC(=O)Nc1c(C)cccc1C` [Lidocain, reference compound], in the data set with nervus ischiadicus, the EC50 % was 0.19% and the Duration of effect was 34 min.
As for `OC(CO/N=C1\CCCC\C1=C/c1ccccc1)CN1CC=C(c2ccccc2)CC1` (racemic) [Example 55, R,S-2-(E)-Phenylmethylene-1-(E)-[3-(4-phenyl-1,2,3,6-tetrahydro)-1-pyridinyl]-2-hydroxy-propoxyimino-cyclohexane], the LD50 at 336 h in data set [2] was over 1000 mg/kg. In addition, in data set [1] (iv), the ED50 amounted to 1.77 mg/kg.
For “R,S-2-(E)-Chlorophenylmethylene-1-(E)-[3-(4-phenyl-1-piperazinyl)-2-hydroxy-propoxyimino]-cyclohexane [Example 24]”, in the data set with white mice (CFLP strain), the LD50 entry is on record as “more than 1000 mg/kg”. Also, in data set [4], the “TI (therapeutic index)” value is on record as “about 7” and the “ED50 (antiperistaltic)” value is recorded as “about 150 mg/kg”.
For `COc1ccc(/C=C2\CCCC\C2=N/OCC(O)CNC2CC2)cc1` (racemic) [Example 40, R,S-2-(E)-(4-Methoxyphenyl-methylene)-1-(E)-(3-cyclopropylamino-2-hydroxy-propoxyimino)-cyclohexane], the LD50 at 336 h in data set [2] turned out to be 800 mg/kg. In the data set with nervus ischiadicus, the EC50 % was determined as 0.19% and the Duration of effect came to 68 min. Moreover, the inhibition in vivo at 160 mg/kg in the data set with gastric acid secretion came to 57%.
In turn, `CC(C)NCC(O)CO/N=C1\CCCCC1Cc1ccc(Cl)cc1` (racemic) [Example 47, R,S-2-(E)-(4-Chlorophenyl-methyl)-1-(E)-[3-(1-methylethyl-amino)-2-hydroxy-propoxyimino]-cyclohexane] registered an LD50 at 336 h in data set [2] of 700 mg/kg. The ED50 in data set [1] (setting [5]) turned out to be 1.29 mg/kg. For the same compound, in the data set with nervus ischiadicus, the EC50 % was 0.18% and the Duration of effect was 93 min.
Turning to `CN(C)CCCNCC(O)CO/N=C1\CCCC\C1=C/c1ccccc1` (racemic) [Example 11, R,S-2-(E)-Phenylmethylene-1-(E)-[3-(3-dimethylamino-1-propylamino)-2-hydroxy-propoxyimino]-cyclohexane], the LD50 at 336 h in data set [2] was over 1000 mg/kg. Besides, the ED50 in data set [1] (setting [5]) stood at 0.93 mg/kg; in data set [4], 100 mg/kg. The inhibition in vivo at 200 mg/kg with gastric acid secretion is 62%. Also, the “TI (therapeutic index)” value in data set [4] is 10.
